Assay results published in ChEMBL document CHEMBL5365440, “Design, synthesis, and structure-activity relationship of a bicyclic HBV capsid assembly modulator chemotype leading to the identification of clinical candidate AB-506” (Bioorg Med Chem Lett, 2023).
In brackets after ≈: the same amount, converted by molar mass.

Experiments:
Hepatitis B virus [1] = assay: Antiviral activity against Hepatitis B virus Genotype D infected in NOD.CB17-PrkdcSCID/J mouse model assessed as reduction in serum HBV DNA level at po dosed for 7 consecutive days; format: functional, organism-based
Hepatitis B virus [2] = assay: Antiviral activity against Hepatitis B virus infected in human HepDE19 cells assessed as reduction in viral replication incubated for 3 to 7 days by PCR analysis; format: functional, organism-based
[3] = Microsomal stability in human liver microsomes assessed as intrinsic clearance; format: ADME, Microsome; settings: read-out: CLH
[4] = Microsomal stability in mouse liver microsomes assessed as intrinsic clearance; format: ADME, Microsome; settings: read-out: CLH
[5] = Aqueous solubility of the compound in PBS buffer at pH 7.4; format: physicochemical
[6] = AUC (0-infinity) in CD-1 mouse at 10 mg/kg,po; format: ADME, organism-based; parameters: dose 10 mg/kg, route po; settings: in vivo
[7] = Cmax in CD-1 mouse at 10 mg/kg,po; format: ADME, organism-based; parameters: dose 10 mg/kg, route po; settings: in vivo
[8] = Half life in CD-1 mouse at 2 mg/kg,iv; format: ADME, organism-based; settings: in vivo
[9] = Clearance in CD-1 mouse at 2 mg/kg,iv; format: ADME, organism-based; settings: in vivo
Hepatitis B virus [10] = assay: Antiviral activity against Hepatitis B virus Genotype D infected in NOD.CB17-PrkdcSCID/J mouse model assessed as log reduction in serum HBV DNA level at 30 mg/kg,po dosed for 7 consecutive days by qPCR analysis; format: functional
Hepatitis B virus [11] = assay: Antiviral activity against Hepatitis B virus Genotype D infected in NOD.CB17-PrkdcSCID/J mouse model assessed as log reduction in serum HBV DNA level at 100 mg/kg,po dosed for 7 consecutive days by qPCR analysis; format: functional
[12] = Cytotoxicity against human HepDE19 cells incubated for 48 hrs by cell titer-glo luminescent based cell viability assay; format: toxicity
Hepatitis B virus [13] = assay: Antiviral activity against Hepatitis B virus infected in mouse AML12 cells assessed as reduction in viral replication incubated for 2 days by SYBR green based PCR analysis; format: functional, organism-based; settings: AML12, 48 h
Hepatitis B virus [14] = assay: Antiviral activity against Hepatitis B virus Genotype D infected in NOD.CB17-PrkdcSCID/J mouse model assessed as log reduction in serum HBV DNA level at 10 mg/kg,po dosed for 7 consecutive days by qPCR analysis; format: functional
Cytochrome P450 3A4 = Cytochrome P450 3A4 (Homo sapiens, UniProt P08684); assay: Inhibition of CYP3A4 (unknown origin); format: ADME
Cytochrome P450 3A4, sequence (P08684 whole entry): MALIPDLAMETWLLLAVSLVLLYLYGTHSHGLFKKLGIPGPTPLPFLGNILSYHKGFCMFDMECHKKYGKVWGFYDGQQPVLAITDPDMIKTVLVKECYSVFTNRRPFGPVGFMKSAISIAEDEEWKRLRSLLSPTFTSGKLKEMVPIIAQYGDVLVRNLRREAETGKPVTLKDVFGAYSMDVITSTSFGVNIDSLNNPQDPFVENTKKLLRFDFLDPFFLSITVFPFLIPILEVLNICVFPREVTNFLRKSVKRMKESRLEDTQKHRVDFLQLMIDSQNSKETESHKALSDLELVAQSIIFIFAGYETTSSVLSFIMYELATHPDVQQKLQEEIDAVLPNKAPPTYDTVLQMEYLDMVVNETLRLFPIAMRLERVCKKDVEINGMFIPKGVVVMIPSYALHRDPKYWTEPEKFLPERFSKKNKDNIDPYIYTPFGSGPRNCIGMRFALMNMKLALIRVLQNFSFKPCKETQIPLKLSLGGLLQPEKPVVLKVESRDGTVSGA

Cytochrome P450 2D6 = Cytochrome P450 2D6 (Homo sapiens, UniProt P10635); assay: Inhibition of CYP2D6 (unknown origin); format: ADME
Cytochrome P450 2D6, sequence (P10635 whole entry): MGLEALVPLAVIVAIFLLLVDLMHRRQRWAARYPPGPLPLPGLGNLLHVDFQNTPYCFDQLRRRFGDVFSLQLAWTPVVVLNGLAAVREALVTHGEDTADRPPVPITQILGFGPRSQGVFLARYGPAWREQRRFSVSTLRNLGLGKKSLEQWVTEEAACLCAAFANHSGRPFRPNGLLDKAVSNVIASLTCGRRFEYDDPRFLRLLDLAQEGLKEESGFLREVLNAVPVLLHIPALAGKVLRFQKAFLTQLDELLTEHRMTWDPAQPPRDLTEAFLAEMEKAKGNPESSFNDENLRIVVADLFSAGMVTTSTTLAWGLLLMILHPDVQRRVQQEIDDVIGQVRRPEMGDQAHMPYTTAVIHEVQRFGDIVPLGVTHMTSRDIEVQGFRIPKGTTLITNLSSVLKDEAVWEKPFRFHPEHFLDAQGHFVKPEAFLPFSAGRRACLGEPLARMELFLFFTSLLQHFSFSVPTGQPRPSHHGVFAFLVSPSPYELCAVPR

Cytochrome P450 2C9 = Cytochrome P450 2C9 (Homo sapiens, UniProt P11712); assay: Inhibition of CYP2C9 (unknown origin); format: ADME
Cytochrome P450 2C9, sequence (P11712 whole entry): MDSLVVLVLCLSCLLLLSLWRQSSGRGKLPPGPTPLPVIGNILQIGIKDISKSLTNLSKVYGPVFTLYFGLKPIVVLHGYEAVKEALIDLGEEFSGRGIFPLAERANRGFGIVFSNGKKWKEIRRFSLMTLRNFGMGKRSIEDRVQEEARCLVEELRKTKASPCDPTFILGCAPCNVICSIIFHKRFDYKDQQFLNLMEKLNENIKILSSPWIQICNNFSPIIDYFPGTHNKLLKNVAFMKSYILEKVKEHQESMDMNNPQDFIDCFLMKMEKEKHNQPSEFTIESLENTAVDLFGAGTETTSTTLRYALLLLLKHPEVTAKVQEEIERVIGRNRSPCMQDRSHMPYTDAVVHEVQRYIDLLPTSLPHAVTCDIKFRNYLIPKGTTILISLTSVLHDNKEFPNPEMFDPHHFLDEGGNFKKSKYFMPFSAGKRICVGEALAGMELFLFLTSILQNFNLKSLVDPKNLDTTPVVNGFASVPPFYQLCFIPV

Cytochrome P450 2C19 = Cytochrome P450 2C19 (Homo sapiens, UniProt P33261); assay: Inhibition of CYP2C19 (unknown origin); format: ADME
Cytochrome P450 2C19, sequence (P33261 whole entry): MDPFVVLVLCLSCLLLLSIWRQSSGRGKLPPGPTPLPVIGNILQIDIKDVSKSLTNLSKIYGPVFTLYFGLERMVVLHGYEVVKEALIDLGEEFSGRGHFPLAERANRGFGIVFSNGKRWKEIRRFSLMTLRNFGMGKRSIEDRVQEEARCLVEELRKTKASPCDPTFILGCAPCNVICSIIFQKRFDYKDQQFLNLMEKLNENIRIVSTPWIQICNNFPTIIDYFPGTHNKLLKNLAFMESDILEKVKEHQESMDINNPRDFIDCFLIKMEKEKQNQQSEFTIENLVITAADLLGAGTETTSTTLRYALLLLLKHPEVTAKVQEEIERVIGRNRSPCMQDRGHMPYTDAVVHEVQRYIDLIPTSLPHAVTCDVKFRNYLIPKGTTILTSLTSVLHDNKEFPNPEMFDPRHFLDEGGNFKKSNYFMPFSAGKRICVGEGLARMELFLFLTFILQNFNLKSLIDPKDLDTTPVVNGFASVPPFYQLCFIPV

Cytochrome P450 1A2 = biological target: T1, Cytochrome P450 1A2 (Homo sapiens, UniProt P05177); assay: Inhibition of CYP1A2 (unknown origin); format: ADME
T1 sequence (P05177 whole entry): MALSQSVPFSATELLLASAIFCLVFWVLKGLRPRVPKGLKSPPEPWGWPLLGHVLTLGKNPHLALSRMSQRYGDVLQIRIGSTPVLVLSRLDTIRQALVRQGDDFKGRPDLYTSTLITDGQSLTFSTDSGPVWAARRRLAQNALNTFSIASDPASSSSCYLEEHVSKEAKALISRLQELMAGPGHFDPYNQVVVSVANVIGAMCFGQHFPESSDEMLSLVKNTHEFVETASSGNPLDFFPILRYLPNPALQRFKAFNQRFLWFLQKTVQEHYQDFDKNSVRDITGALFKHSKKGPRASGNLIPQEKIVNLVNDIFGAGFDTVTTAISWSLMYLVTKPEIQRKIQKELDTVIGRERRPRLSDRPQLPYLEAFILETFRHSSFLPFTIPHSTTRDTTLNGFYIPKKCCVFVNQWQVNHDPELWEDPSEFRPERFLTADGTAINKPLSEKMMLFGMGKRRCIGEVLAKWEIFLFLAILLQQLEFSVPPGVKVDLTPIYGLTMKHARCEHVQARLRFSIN

[15] = Cmax in rat at 10 mg/kg,po; format: ADME, organism-based; parameters: dose 10 mg/kg, route po; settings: in vivo
[16] = Cmax in dog at 10 mg/kg,po; format: ADME, organism-based, Canis lupus familiaris; parameters: dose 10 mg/kg, route po; settings: in vivo
[17] = Half life in rat at 2 mg/kg,iv; format: ADME, organism-based; settings: in vivo
[18] = Half life in dog at 2 mg/kg,iv; format: ADME, organism-based, Canis lupus familiaris; settings: in vivo
[19] = Clearance in rat at 2 mg/kg,iv; format: ADME, organism-based; settings: in vivo
[20] = Clearance in dog at 2 mg/kg,iv; format: ADME, organism-based, Canis lupus familiaris; settings: in vivo
in vivo [21] = settings: rat, po, 10 mg/kg
Description: AUC (0-infinity) in rat at 10 mg/kg,po

in vivo [22] = settings: dog, po, 10 mg/kg
Description: AUC (0-infinity) in dog at 10 mg/kg,po

Row | EC50 (Hepatitis B virus [2]) [nM] | microsomal CLint [3] [µL/min/mg] | microsomal CLint [4] [µL/min/mg] | solubility [5] [µM] | SMILES | other results
1 | 95 | 11 | 36 | < 1.6 | O=C(N[C@H]1CCc2c(C(=O)Nc3ccc(F)c(Cl)c3)ccc(F)c21)OCc1ccccn1 | Activity (Hepatitis B virus [1]): Dose-Dependent Effect; AUC(0-inf) [6]: 7230 ng·h/mL; Cmax [7]: 695 ng/mL; half-life [8]: 1.2 h; clearance [9]: 28 mL/min/kg; Activity (Hepatitis B virus [10]): 0.8 log10CFU; Activity (Hepatitis B virus [11]): 1.6 log10CFU
2 | 120 | 4.8 | 33 | < 1.6 | O=C(N[C@H]1CCc2c(C(=O)Nc3ccc(F)c(Cl)c3)ccc(F)c21)OCc1ccon1 | 
3 | 200 |  |  |  | COC(=O)N[C@H]1CCOc2c(C(=O)Nc3ccc(F)c(Cl)c3)ccc(F)c21 | CC50 at 48 h [12]: > 25000 nM
4 | 300 | 20 | 20 | 16.9 (≈ 7.79 µg/mL) | O=C(N[C@H]1CCc2c(C(=O)Nc3ccc(F)c(Cl)c3)ccc(F)c21)OCCn1ccnc1 | 
5 | 100 | 38 | 25 | 9.1 (≈ 4.19 µg/mL) | Cn1nccc1COC(=O)N[C@H]1CCc2c(C(=O)Nc3ccc(F)c(Cl)c3)ccc(F)c21 | 
6 | > 25000 |  |  |  | COC(=O)N[C@H]1CCCOc2c(C(=O)Nc3ccc(F)c(F)c3)cccc21 | 
7 | 2230 |  |  |  | COC(=O)N[C@H]1CCOc2c1ccc(F)c2C(=O)Nc1ccc(F)c(Cl)c1 | CC50 at 48 h [12]: > 25000 nM
8 | 120 | 6.9 | 18 | < 1.6 | O=C(N[C@H]1CCc2c(C(=O)Nc3ccc(F)c(Cl)c3)ccc(F)c21)OCc1cnccn1 | 
9 | 390 | 1 | 45 | 7.5 (≈ 3.44 µg/mL) | O=C(N[C@H]1CCc2c(C(=O)Nc3ccc(F)c(Cl)c3)ccc(F)c21)OCc1ccncn1 | 
10 | 8600 | 0.3 | 21 |  | COC(=O)N[C@H]1CCCc2c(C(=O)Nc3ccc(F)c(F)c3)cccc21 | 
11 |  |  |  |  | O=C(Nc1ccc(F)c(Cl)c1)c1cccc2c1OCCO2 | EC50 (Hepatitis B virus [13]): 200 nM
12 | 280 | 104 | 96 | < 1.6 | Cn1ccnc1COC(=O)N[C@H]1CCc2c(C(=O)Nc3ccc(F)c(Cl)c3)ccc(F)c21 | 
13 | 590 | 0.6 | 9.2 |  | COC(=O)N[C@H]1CCc2c(C(=O)Nc3ccc(F)c(F)c3)cccc21 | 
14 | 47 | 7.9 | 23 | 4.8 (≈ 2.21 µg/mL) | Cn1ccc(COC(=O)N[C@H]2CCc3c(C(=O)Nc4ccc(F)c(Cl)c4)ccc(F)c32)n1 | Activity (Hepatitis B virus [14]): 0.5 log10CFU; Activity (Hepatitis B virus [1]): Dose-Dependent Effect; AUC(0-inf) [6]: 5160 ng·h/mL; Cmax [7]: 913 ng/mL; half-life [8]: 3.5 h; clearance [9]: 19 mL/min/kg; Activity (Hepatitis B virus [10]): 1.4 log10CFU; Activity (Hepatitis B virus [11]): 2.5 log10CFU
15 | 1320 | 5 | 41 |  | COC(=O)N[C@H]1COc2c(C(=O)Nc3ccc(F)c(F)c3)cccc21 | 
16 | 800 |  |  |  | COC(=O)N[C@H]1CCOc2c(C(=O)Nc3ccc(F)c(F)c3)c(F)cc(F)c21 | CC50 at 48 h [12]: > 25000 nM

Row | EC50 (Hepatitis B virus [2]) [nM] | microsomal CLint [3] [µL/min/mg] | microsomal CLint [4] [µL/min/mg] | solubility [5] [µM] | SMILES | other results
17 | 190 | 8.2 | 8.1 | 2.8 (≈ 1.19 µg/mL) | COCCOC(=O)N[C@H]1CCc2c(C(=O)Nc3ccc(F)c(Cl)c3)ccc(F)c21 | 
18 | 71 | 7.5 | 23 | < 1.6 | O=C(N[C@H]1CCc2c(C(=O)Nc3ccc(F)c(Cl)c3)ccc(F)c21)OCc1ncco1 | 
19 | 570 |  |  |  | COC(=O)N[C@H]1CCOc2c(C(=O)Nc3ccc(F)c(F)c3)ccc(F)c21 | CC50 at 48 h [12]: > 25000 nM
20 | 190 | 133 | 17 | 43.4 (≈ 19.6 µg/mL) | CC(=O)NCCOC(=O)N[C@H]1CCc2c(C(=O)Nc3ccc(F)c(Cl)c3)ccc(F)c21 | 
21 | 170 | 3.5 | 9.2 | < 1.6 | COC(=O)N[C@H]1CCc2c(C(=O)Nc3ccc(F)c(Cl)c3)ccc(F)c21 | 
22 | 77 | 6.2 | 21 | 14.8 (≈ 6.84 µg/mL) | Cn1cnc(COC(=O)N[C@H]2CCc3c(C(=O)Nc4ccc(F)c(Cl)c4)ccc(F)c32)n1 | IC50 (Cytochrome P450 3A4): > 20000 nM; IC50 (Cytochrome P450 2D6): > 20000 nM; IC50 (Cytochrome P450 2C9): > 20000 nM; IC50 (Cytochrome P450 2C19): > 20000 nM; IC50 (Cytochrome P450 1A2): > 20000 nM; Cmax [15]: 2850 ng/mL; Cmax [16]: 6820 ng/mL; half-life [17]: 3.2 h; Activity (Hepatitis B virus [14]): 1 log10CFU; Activity (Hepatitis B virus [1]): Dose-Dependent Effect; AUC(0-inf) [6]: 9870 ng·h/mL; half-life [8]: 2.5 h; clearance [9]: 18 mL/min/kg; half-life [18]: 11.4 h; clearance [19]: 4.6 mL/min/kg; clearance [20]: 1.25 mL/min/kg; Activity (Hepatitis B virus [10]): 2.4 log10CFU; Activity (Hepatitis B virus [11]): 2.9 log10CFU; AUC(0-inf) (in vivo [21]): 39600 ng·h/mL; AUC(0-inf) (in vivo [22]): 134000 ng·h/mL
23 | 580 | 10 | 55 | 3 (≈ 1.32 µg/mL) | COCCCOC(=O)N[C@H]1CCc2c(C(=O)Nc3ccc(F)c(Cl)c3)ccc(F)c21 | 
24 | 120 | 3.5 | 17 | 4.5 (≈ 2.06 µg/mL) | O=C(N[C@H]1CCc2c(C(=O)Nc3ccc(F)c(Cl)c3)ccc(F)c21)OCc1ncccn1 | 
25 | 850 |  |  |  | COC(=O)N[C@H]1CCOc2c(C(=O)Nc3ccc(F)c(Cl)c3)cccc21 | EC50 (Hepatitis B virus [13]): 280 nM; CC50 at 48 h [12]: > 25000 nM
26 | 3710 |  |  |  | COC(=O)N[C@H]1CCOc2c1ccc(F)c2C(=O)Nc1ccc(F)c(F)c1 | CC50 at 48 h [12]: > 25000 nM
27 | 1170 |  |  |  | COC(=O)N[C@H]1CCOc2c(C(=O)Nc3cc(F)c(F)c(F)c3)cccc21 | CC50 at 48 h [12]: > 25000 nM
28 | 200 | 1 | 3 | 6.4 (≈ 2.63 µg/mL) | O=C(N[C@H]1CCc2c(C(=O)Nc3ccc(F)c(Cl)c3)ccc(F)c21)OCCO | 
29 | 2250 |  |  |  | COC(=O)N[C@H]1CCOc2c(C(=O)Nc3ccc(F)c(F)c3)cccc21 | EC50 (Hepatitis B virus [13]): 710 nM; CC50 at 48 h [12]: > 25000 nM
30 | 74 | 8 | 17 | < 1.6 | O=C(N[C@H]1CCc2c(C(=O)Nc3ccc(F)c(Cl)c3)ccc(F)c21)OCc1cc[nH]n1 | 
31 | 79 | 0.2 | 9 | 6.1 (≈ 2.73 µg/mL) | O=C(N[C@H]1CCc2c(C(=O)Nc3ccc(F)c(Cl)c3)ccc(F)c21)OCc1nc[nH]n1 | 
